Assay results published in patent US10226435B2, “Compositions and methods for restoring the stratum corneum and treating dermatological diseases” (New York University, priority 2011, dated 2019).

Experiments:
breast cancer = details: rats, ionizing radiation or DMBA; cited from earlier work
[1] = system: mouse skin gene expression; experiment: Gene expression microarray analysis of mouse skin; assay type: in vivo; details: for loricrin and filaggrin and vascular endothelial growth factor (VEGF) genes / matrix metalloproteinases: ingestion, animal models; for inflammation genes induced by UVR: per os daily for 4 days in 30 microL droplets prior to irradiation
Experimental: Animals for the histology and microarray analysis were euthanized 24 hours after 4 days of terpene pre-feed and the UVR exposure.
Gene expression microarray analysis was performed as follows: RNA was extracted from a 0.1 g sample of mouse skin and an equal quantity of keratinocytes by using the TRIZOL reagent (Invitrogen, Carlsbad, Calif., USA) according to the manufacture's instructions and 200 μg of total RNA was used for the isolation of poly A+mRNA by using Oligotex mRNA mini columns (QIAGEN, Valencia, Calif., USA). The final centrifugation was performed after the incubation with 1/10 volume of 3.0 M NaOAc, 2.5 volumes of ethanol and 1 μl glycogen (Boehringer Mannheim GmbH, Mannheim, Germany) at −20° C. overnight. Then the pellet was resuspended in diethylpyrocarbonate (DEPC)-treated water. RNA was labeled with biotin and hybridized to a Mouse genome 430_2 GeneChip® microarray (Affymetrix, Inc. Santa Clara, Calif., USA). Data from the Affymetrix mouse expression array chip were imported into the BRB-ArrayTools Version 3.3.0 developed by the Biometric Research Branch of the U.S. National Cancer Institute for normalization and analysis. […] A value of P≤0.001 was chosen as statistically significant. […] For these calculations the entire list of genes on the Affymetrix (mouse 430_2) microarray was used as the reference list.
Mice were treated with either UVR or UVR+beta-damascenone, and samples of tissue were removed from the dorsal skin for RNA extraction and analysis on an Affymetrix Microarray System utilizing mouse whole genome array chips Affy 430_2. The UVR sample served as the control in this preliminary experiment.

[2] = system: skin of SKH1 hairless mice; experiment: Sunburn (erythema) prevention by terpenes in UVR-exposed hairless mice; details: 4 daily 30 microL droplets per os before 15 minute exposure to 3.0 kJ/m2 UVR
Experimental: All experiments were performed with female hairless mice (SKH1) utilizing solar spectrum ultraviolet radiation (UVR). Each experiment was performed in triplicate including controls and UVR-exposed mice and included a total of 22 mice per experiment for a total of 66 mice. The protocol included untreated mice, UVR-irradiated mice as controls for the terpene treatments, UVR+terpene mice and terpene-only mice.
Four solar simulating FS-20 fluorescent lamps were used to deliver 3 kJ/m^2 measured by a calibrated International Light UV radiometer at the lamp distance between 20 to 24 cm. The UVR dose was selected to be just above the minimal erythemal dose for producing a ‘sunburn’ reaction in mouse skin (this is very similar to the minimal erythemal dose of fair-skinned humans).
Each terpene was given to each mouse per os (by mouth) in 15-30 μL droplets (˜15-30 μg) via micropipette once each day for 4 consecutive days prior to and/or subsequent to UVR exposure. Animals were observed and photographed every 24 hours for a period of 6-7 days after the irradiation. Each terpene was administered in pure form.
The UVR exposure of 3 kJ/m^2 was delivered seven (7) days after the last dose was administered. The animals were observed and photographed. […] Liponeate, a triglyceride fraction of coconut oil was used as a diluent. Concentration 1, 10 and 100% were tested. […]

skin inflammation = details: topical preventive treatment 3 days at 10 mg/kg/day before induction; cited from earlier work
colon cancer = details: rats, 1,2-dimethylhydrazine induced, 8 mg/kg, p<0.01; cited from earlier work
[3] = system: human transplanted pancreatic adenocarcinomas; details: growth of human transplanted pancreatic adenocarcinomas; cited from earlier work
[4] = system: stratum corneum of Skh1 mouse skin; experiment: Thickness of nucleated keratinocyte portion of epidermis versus stratum corneum, H&E histology; assay type: in vivo
Text: 1. Skin and epidermal thickness (as measured by histology);

[5] = in vivo; cited from earlier work
skin [6] = details: in vivo; cited from earlier work
skin [7] = details: in vivo; cited from earlier work; remark: listed apart in the source
[8] = system: dorsal skin of hairless mice; experiment: β-damascenone-induced sunburn protection study in hairless mice; assay type: in vivo, mouse; details: read 5 days later
Text: The present experiment will be performed for evaluating the effectiveness and persistence of sunburn protection afforded by different doses and exposure regimens of a test terpene, β-damascenone. Female SKH-1 strain mice, obtained from Charles River Breeding Labs, Wilmington, Mass., will be fed per os various amounts of the terpene as indicated in the following Tables 4 and 5.

[9] = system: inflammation-relevant gene expression; details: rat skin, x-rays; cited from earlier work
[10] = Group 2, 20 μL ×1 oral, section 1 d after final administration, total 20 μL
[11] = Group 3, 10 μL ×4 oral, section 1 d after final administration, total 40 μL
[12] = Group 4, 20 μL ×4 oral, section 1 d after final administration, total 80 μL
[13] = Group 5, 80 μL ×1 oral, section 1 d after final administration, total 80 μL
[14] = Group 6, 20 μL ×1 oral, section 5 d after final administration, total 20 μL
[15] = Group 7, 10 μL ×4 oral, section 5 d after final administration, total 40 μL
[16] = Group 8, 80 μL ×1 oral, section 5 d after final administration, total 80 μL
[17] = Group 9, 20 μL ×4 oral, section 5 d after final administration, total 80 μL
[18] = Group 10, 10 μL ×4 oral, section 12 d after final administration, total 40 μL
[19] = Group 11, 20 μL ×4 oral, section 12 d after final administration, total 80 μL
[20] = day 5 after the exposures were completed
[21] = UVR+beta-damascenone relative to UVR only
[22] = Group 2, 20 uL × 4 by feeding tube, UVR 1.5 kJ/m^2 5 days after final dose
[23] = Group 3, 10 uL × 4 by feeding tube, UVR 1.5 kJ/m^2 5 days after final dose
[24] = Group 4 (replication of group 2), 20 uL × 4 by feeding tube, UVR 1.5 kJ/m^2 5 days after final dose
[25] = Group 5, 10 uL × 1 by feeding tube, UVR 1.5 kJ/m^2 5 days after dose
[26] = Group 6, 20 uL × 1 by feeding tube, UVR 1.5 kJ/m^2 5 days after dose
[27] = Group 7, 40 uL × 1 by feeding tube, UVR 1.5 kJ/m^2 5 days after dose
[28] = Groups 2 + 4 combined, 20 uL × 4, UVR 1.5 kJ/m^2 5 days after final dose

For `C=C(C)[C@H]1CC=C(C)CC1` [d-limonene], the “initiation of breast cancer” value (breast cancer) is given as “almost completely prevented”.

In the case of `C=C(C)[C@@H]1CCC2=CC(=O)C[C@@H](C)[C@]2(C)C1` [nootkatone], the “loricrin and filaggrin and vascular endothelial growth factor (VEGF) genes” value [1] was “upregulation”, the matrix metalloproteinases [1] was “downregulation” and the “inflammation genes induced by UVR” value [1] was “blocked”. For the same molecule, the “cutaneous inflammation and erythema after UVR” value [2] was “blocked”.

In the case of `C=C(C)[C@@H]1CC=C(CO)CC1` [perillyl alcohol, reference compound], the “effect on skin inflammation” value (skin inflammation) is listed as “significant effect” and the “initiation of breast cancer” value (breast cancer) is listed as “almost completely prevented”.

For `Oc1ccc(C=Cc2cc(O)cc(O)c2)cc1` [resveratrol], the “inhibition of colon cancer” value (colon cancer) is given as 67%.

For `CC(C)=CCC/C(C)=C/CO` [Geraniol], the “effectiveness relative to perillyl alcohol” value [3] is listed as “about 5 fold”.

For `C/C=C/C(=O)C1=C(C)C=CCC1(C)C` [beta-damascenone], the “Living Epidermis Thickness” value ([4]; Average (Groups 2-11)) was 34.6 arbitrary units, the “Stratum Corneum Thickness” value ([4]; Average (Groups 2-11)) was 21.0 arbitrary units and the “Living Epidermis Thickness” value [4, 10] was 35.0 arbitrary units. The “Stratum Corneum Thickness” value [4, 10] was 20.0 arbitrary units, the “Living Epidermis Thickness” value [4, 11] was 37.0 arbitrary units and the “Stratum Corneum Thickness” value [4, 11] was 15.3 arbitrary units. The “Living Epidermis Thickness” value [4, 12] was 36.0 arbitrary units, the “Stratum Corneum Thickness” value [4, 12] was 17.8 arbitrary units and the “Living Epidermis Thickness” value [4, 13] was 36.0 arbitrary units. For the same molecule, the “Stratum Corneum Thickness” value [4, 13] was 16.3 arbitrary units, the “Living Epidermis Thickness” value [4, 14] was 38.5 arbitrary units and the “Stratum Corneum Thickness” value [4, 14] was 37.0 arbitrary units. For the same molecule, the “Living Epidermis Thickness” value [4, 15] was 40.2 arbitrary units, the “Stratum Corneum Thickness” value [4, 15] was 20.2 arbitrary units and the “Living Epidermis Thickness” value [4, 16] was 36.2 arbitrary units. The “Stratum Corneum Thickness” value [4, 16] was 25.5 arbitrary units, the “Living Epidermis Thickness” value [4, 17] was 32.5 arbitrary units and the “Stratum Corneum Thickness” value [4, 17] was 21.2 arbitrary units. For the same molecule, the “Living Epidermis Thickness” value [4, 18] was 30.7 arbitrary units, the “Stratum Corneum Thickness” value [4, 18] was 18.7 arbitrary units and the “Living Epidermis Thickness” value [4, 19] was 23.3 arbitrary units. The “Stratum Corneum Thickness” value [4, 19] was 21.7 arbitrary units, the “nucleated keratinocytes in the epidermis” value [4, 20] was “no corresponding increase” and the “thickness of the stratum corneum” value [4, 20] was “highly significant increases”. For the same molecule, the “stratum corneum thickness (FIG. 4)” value ([4]; mouse, in vivo) was “consistently thickened”, the LD50 [5] was “greater than 2.0 g/kg” and the phototoxicity or photoallergenity (skin [6]) was “No phototoxicity or photoallergenity”. For the same molecule, the inflammation-relevant genes [1, 21] was “strongly down-regulated”, the “number of gene categories significantly (p<0.05) down-regulated” value [1, 21] was 13 and the “only significantly (p<0.05) altered up-regulated category at level 4 of Gene Ontology Tree” value [1, 21] was “epidermal cell differentiation”. For the same molecule, the “loricrin and filaggrin and vascular endothelial growth factor (VEGF) genes” value [1] was “upregulation”, the matrix metalloproteinases [1] was “downregulation” and the “inflammation genes induced by UVR” value [1] was “blocked”. For the same molecule, the skin irritation (skin [7]) was “No skin irritation”, the “Areas with no sunburn” value [8, 22] was 11.0 and the Areas with sunburn [8, 22] was 1.0. For the same molecule, the “Areas with no sunburn” value [8, 23] was 6.0, the Areas with sunburn [8, 23] was 2.0 and the “Areas with no sunburn” value [8, 24] was 8.0. The Areas with sunburn [8, 24] was 0.0, the “Areas with no sunburn” value [8, 25] was 7.0 and the Areas with sunburn [8, 25] was 5.0. The “Areas with no sunburn” value [8, 26] was 10.0, the Areas with sunburn [8, 26] was 2.0 and the “Areas with no sunburn” value [8, 27] was 3.0. For the same molecule, the Areas with sunburn [8, 27] was 1.0, the “Areas with no sunburn” value [8, 28] was 19.0 and the Areas with sunburn [8, 28] was 1.0. For the same molecule, the “cutaneous inflammation and erythema after UVR” value [2] was “blocked”.

For vitamin A, the “inflammation-relevant gene expression alterations blocked” value [9] is given as “about 80%”.
